From US10550399B2, “Plant transformation method using plant growth inhibiting hormone” (KANEKA CORPORATION, priority 2012, dated 2020)

Key:
maize seed = assay: In planta transformation of maize seeds using pIG121-1-carrying Agrobacterium with abscisic acid; format: in vivo, maize (Zea mays); conditions: abscisic acid 100 μM
Procedure: Seeds of maize (Zea mays) were washed with sterile water 2 or 3 times to wash the red disinfectant away from the seed coat. The washed seeds were soaked in sterile water and incubated at 25° C. for 2 days. Water was exchanged with fresh water once during incubation. Thus, the seeds absorbed water and the embryonic portions became white. These seeds were used for the experiment described below. A bacterial solution containing pIG121-1-carrying Agrobacterium and abscisic acid (final concentration: 100 μM) was prepared as an Agrobacterium solution for inoculation in the same manner as in Example 1.
With the use of a needle (φ 0.71 mm), the shoot (length: 1 mm) of the embryo (longer diameter: about 1 cm) of the maize seed was pierced 4 times on the apex, in which the meristem was considered to be present, to a depth of 0.5 mm to 1 mm to provide 4 pores in an area of about 2 mm square. Thereafter, the Agrobacterium solution for inoculation prepared above was applied dropwise to the pores using a pipette to inoculate the seeds with Agrobacterium.
Subsequently, a filter paper was placed in a petri dish and moistened with water. The maize seeds inoculated with Agrobacterium were placed on the filter paper and the petri dish was covered. The petri dish was then placed in an incubator at 25° C., and incubation was carried out in the dark for 2 days. After co-culture was conducted for 2 days, the seeds were sowed in culture soil and grown.
Gene introduction in the T0 generation was verified in the same manner as in Example 1. Plants (5-leaf stage) 20 days after transformation were used for genomic PCR. […] A 544-bp PCR product indicating GUS gene introduction was detected in 2 plants.

wheat seeds [1] = assay: In planta Agrobacterium (LBA4404, pIG121-1) transformation of wheat seeds under application of a plant growth-inhibiting hormone; format: in vivo, wheat (Triticum aestivum L.)
wheat seeds [2] = assay: as above; format: in vivo, wheat (Triticum aestivum L.); conditions: for Transformation efficiency (T0 generation×T1 generation): hormone 100 μM in bacterial solution, variety Yumechikara, shoot length about 2 mm, soaked about 20 min, co-culture 22° C. 2 days
Procedure: Transformation efficiency for the transformed plant thus obtained can be determined. Transformation efficiency (T0 generation×T1 generation) is determined by multiplying transformation efficiency for the T0 generation (the number of transformed plants of T0 generation/the number of plants subjected to transformation) and transformation efficiency for the T1 generation (the number of transformed plants of T1 generation/(the number of plants of T1 generation subjected to the verification for incorporation of foreign genes into genomes).
The Agrobacterium into which pIG121-1 had been introduced prepared above were cultured in LB medium containing kanamycin and streptomycin (50 mg/1 each) at 28° C. for 18 hours to prepare an Agrobacterium solution. Through this culture, the transformed Agrobacterium carrying pIG121-1 were selected on the basis of functions of the kanamycin resistance gene and the streptomycin resistance gene existing outside the T-DNA region of pIG121-1.
Abscisic acid (final concentration: 100 μM) was added to the bacterial solution prepared in the manner described above, and the resulting bacterial solution was used below as an Agrobacterium solution for inoculation.
Pretreatment of seeds was carried out by soaking wheat seeds (variety: Yumechikara (Wheat Nourin 172)) in 70% ethanol for 5 minutes, followed by shaking in a 20% antiformin solution for 10 minutes. The seeds were washed with water to remove the antiformin solution, wrapped in moistened Kim towel, and then cultured at 25° C. for 36 to 40 hours for germination.
Subsequently, a portion around the shoot of the seed (shoot length: about 2 mm) was pierced with a needle (diameter: 0.71 mm) to a depth of about 1 mm to provide a pore. The seeds with thus wounded meristems were soaked in the Agrobacterium solution prepared above for about 20 minutes to inoculate the seeds with the Agrobacterium. Thereafter, the seeds were removed from the Agrobacterium solution, mounted on moistened Kim towel, and then cultured in a covered petri dish at 22° C. for 2 days (co-culture). Thus, the seeds were infected with Agrobacterium. Next, in order to disinfect Agrobacterium, the co-cultured seeds were soaked in an aqueous solution of cefotaxime (1,000 ppm) and then shaken at room temperature for 2 hours. Subsequently, the seeds were removed from the aqueous solution of cefotaxime, mounted on moistened Kim towel, and then grown in a covered petri dish at 25° C. for 2 days. The seeds were transferred to a pot containing culture soil and then grown at 25° C. under the long-day conditions (a light period of 16 hours and a dark period of 8 hours).
When the seeds grew to the 5- to 6-leaf stage, genome PCR was carried out to select transformants.
Considering that Yumechikara is an autumn wheat variety, the obtained transformants were subjected to vernalization at 4° C. for 1.5 months to facilitate flower bud formation. Subsequently, the transformants (T0 generation) were self-crossed to obtain T1 seeds, and gene introduction and gene expression in the T1 generation were verified.
Gene introduction at the T1 generation was verified via genome PCR under the same conditions as with the case of the T0 generation. […] A band of interest was detected in 3 of the 14 individuals subjected to the genome PCR.
Jasmonic acid (final concentration: 100 μM) was added to the bacterial solution prepared in the manner described above, and the resulting bacterial solution was used below as an Agrobacterium solution for inoculation.
Subsequently, a portion around the shoot of the seed (shoot length: about 2 mm) was pierced with a needle (diameter: 0.71 mm) to a depth of about 1 mm to provide a pore. The seeds with thus wound meristems were soaked in the Agrobacterium solution prepared above for about 20 minutes to inoculate the seeds with the Agrobacterium. […]

[3] = system: soybeans, variety "Toyomusume"; assay: In planta Agrobacterium (LBA4404, pIG121-1) transformation of soybean axillary buds with abscisic acid; format: in vivo, soybean (Glycine max); conditions: abscisic acid 100 μM, axillary buds of plants 14 days after germination
Procedure: Plant transformation was carried out in the same manner as in Example 1, except that a variety “Toyomusume” of soybeans was used and axillary buds of the plants 14 days after germination were inoculated with Agrobacterium, and then gene introduction and gene expression in the T0 generation were verified.

[4] = system: soybeans, variety "Toyomusume"; assay: In planta transformation of soybeans using the Agrobacterium tumefaciens M21 mutant with abscisic acid; format: in vivo, soybean (Glycine max); conditions: abscisic acid 100 μM
Procedure: Plant transformation was carried out in the same manner as in Example 8, except that the Agrobacterium tumefaciens M21 mutant was used, and then gene introduction in the T0 generation was verified.
The Agrobacterium tumefaciens M21 mutant (hereafter referred to as “the M21 mutant”) was obtained via mutation of the Agrobacterium tumefaciens A208 strain (C58 chromosome, nopaline T37 pTi) with the use of transposon 5 (Tn5) (Majumder, P. et al., J. Biosci. Bioeng., 90: 328-331, 2000; WO 2005/024034). In the M21 mutant, Tn5 is inserted into the tryptophan monooxygenase gene involved in biosynthesis of indoleacetic acid (IAA) in the T-DNA region of the Ti plasmid. This would cause hormone imbalance in plants transformed via infection with the M21 mutant, which would lead to phenotypic changes. Thus, the presence or absence of the transformation was easily determined via visual inspection.
Transformation efficiency (T0 generation) achieved by the method of the present invention was 75%.

[5] = 13 plants subjected to transformation
[6] = abscisic acid 100 μM, Yumechikara, shoot about 2 mm, co-culture 22° C., genome PCR
[7] = 12 plants subjected to transformation

| SMILES | Number of untransformed plants (maize seed; [5]) | Untransformed plants, percent (maize seed; [5]) [%] | Number of transformed plants (maize seed; 13 plants subjected to transformation, 544-bp GUS PCR product) | Transformation efficiency (T0 generation) (maize seed; shoot 1 mm pierced 4 times, co-culture 25° C. 2 days, genomic PCR 20 days after transformation, 13 plants) [%] | Transformation efficiency (T0 generation×T1 generation) (wheat seeds [1]; abscisic acid 100 μM and Tween 20 0.1%, Yumechikara, shoot 1 mm or less, vacuum treatment 20 min, co-culture 28° C.) [%] | Transformation efficiency (T0 generation×T1 generation) (wheat seeds [1]; abscisic acid 100 μM, Tween 20 0.1%, acetosyringone 100 μM, Yumechikara, shoot 1 mm or less, vacuum treatment, co-culture 28° C.) [%] | Transformation efficiency (T0 generation×T1 generation) (wheat seeds [1]; as Example 4 (abscisic acid 100 μM, Tween 20, acetosyringone, vacuum, 28° C.) but wheat variety Haruyokoi) [%] | Transformation efficiency (T0 generation×T1 generation) (wheat seeds [1]; as Example 4 but 10 μM abscisic acid, Yumechikara) [%] | Transformation efficiency (T0 generation×T1 generation) (wheat seeds [1]; as Example 4 but 300 μM abscisic acid, Yumechikara) [%] | Transformation efficiency (T0) (wheat seeds [2]; [6]) [%] | Transformation efficiency (T1) (wheat seeds [2]; [6]) [%] | Individuals with band of interest, T1 generation (wheat seeds [2]; abscisic acid 100 μM, of the 14 individuals subjected to genome PCR) | Individuals with GUS gene band (544 bp), T0 generation (wheat seeds [2]; abscisic acid 100 μM, of the 14 transformed individuals, genome PCR) | Transformation efficiency (T0 generation×T1 generation) (wheat seeds [2]) [%] | Transformation efficiency (T0 generation) [3] [%] | Number of transformed plants [4, 7] | Number of untransformed plants [4, 7] | Untransformed plants, percent [4, 7] [%] | Transformation efficiency (T0 generation) ([4]; axillary buds, tumorigenesis by visual inspection, 12 plants) [%] |
| --- | --- | --- | --- | --- | --- | --- | --- | --- | --- | --- | --- | --- | --- | --- | --- | --- | --- | --- | --- |
| CC1=CC(=O)CC(C)(C)[C@@]1(O)/C=C/C(C)=C\C(=O)O [abscisic acid] | 11 | 84.6 | 2 | 15.4 | 5.1 | 7.2 | 10.2 | 6.3 | 7.0 | 14.3 | 21.4 | 3 | 2 | 3.1 | 30 | 9 | 3 | 25 | 75 |
| CC/C=C\C[C@H]1C(=O)CC[C@@H]1CC(=O)O [jasmonic acid] | – | – | – | – | – | – | – | – | – | – | – | – | – | 2.4 | – | – | – | – | – |
